From patent publication US11634452B2, “Compounds for treating neurodegenerative disorders” (ETHNODYNE, priority 2017, dated 2023)

What was measured:
Format in all cases: cell-based
[1] = tested on: Human MRC-5 cell line derived from normal lung tissue; test: Cytotoxicity test, cell growth inhibition by MTS assay; settings: MRC-5, 72 h incubation, 8 concentrations
Description: (§1) Human MRC-5 cell line derived from normal lung tissue and human HCT-116 colorectal carcinoma were obtained from the American Type Culture Collection (ATCC, Rockville, Md.). Primary Human Umbilical Vein Endothelial Cells (HUVEC) isolated from the vein of the umbilical cord were obtained from Promocell (Germany). Cell lines were cultured according to the supplier's instructions. Human HCT-116 cells were grown in Gibco McCoy's 5A supplemented with 10% fetal calf serum (FCS) and 1% glutamine. Human MRC-5 cells were grown in DMEM supplemented with 10% fetal calf serum (FCS) and 1% glutamine. HUVECs were grown in Endothelial Cell Growth Medium 2 which is low-serum (2% V/V) media optimized for the cultivation of endothelial cells from large blood vessels.
(§2) Cells were counted using a Vi-cell XR (Beckman Coulter) and their viability assessed by 0.25% trypan blue dye exclusion. They were tested for the presence of mycoplasma before experiments with the Mycoplasma PCR Detection Kit (Applied Biological Materials Inc., Canada) in accordance with the manufacturer instructions and only mycoplasma-free cells were used for further investigations.
(§3) Cell lines were maintained at 37° C. in a humidified atmosphere containing 5% CO2. Cell growth inhibition was determined by an MTS assay according to the manufacturer's instructions (Promega, Madison, Wis., USA). […] After 24 h of culture, the cells were treated with the compound CR777 of example 1 at 8 different final concentrations. Each concentration was obtained from serial dilutions in culture medium starting from the stock solution. Control cells were treated with the vehicle. Experiments were performed in triplicate.
(§4) After 72 h of incubation, 20 μL of CellTiter 96® AQueous One Solution Reagent was added for 2 h before recording absorbance at 490 nm with a spectrophotometric plate reader. The dose-response curves were plotted with Graph Prism software and the IC50 values were calculated using the Graph Prism software from polynomial curves (four or five-parameter logistic equations).

[2] = tested on: Primary Human Umbilical Vein Endothelial Cells (HUVEC); test: as above; settings: 72 h incubation, 8 concentrations
Description: as §1, §2, §3, §4

[3] = tested on: human HCT-116 colorectal carcinoma; test: as above; settings: HCT-116, 72 h incubation, 8 concentrations
Description: as §1, §2, §3, §4

[4] = tested on: primary rat dopaminergic neurons (TH positive neurons) injured with MPP+; test: Neuroprotective effect following exposure to MPP+
Description: This study investigated the neuroprotective effect of the Compound CR777 of example 1 on rat primary mesencephalic cultures following exposure to 1-methyl-4-phenyl pyridinium (MPP^+).
Rat dopaminergic neurons were cultured as described by Visanji et al., 2008 FASEB J. 2008; 22(7):2488-97. Briefly, the midbrains obtained from 15-day old rat embryos (Janvier Labs, France) were dissected under a microscope. The embryonic midbrains were removed and placed in ice-cold medium of Leibovitz (L15, Batch 4290114, Pan Biotech, Germany) containing 2% of Penicillin-Streptomycin (PS, Batch 1451013, Pan Biotech) and 1% of bovine serum albumin (BSA, Batch K030913, Pan Biotech). The ventral portion of the mesencephalic flexure, a region of the developing brain rich in dopaminergic neurons, was used for the cell preparations.
The midbrains were dissociated by trypsinisation for 20 min at 37° C. […] The cells were seeded in supplemented neurobasal medium at a density of 40 000 cells/well in 96 well-plates pre-coated with poly-L-lysine (Batch 3102256, Corning Biocoat) and maintained in a humidified incubator at 37° C. in 5% CO2/95% air atmosphere. Half of the medium was changed every 2 days with fresh medium.
On day 6 of culture, the medium was removed and fresh medium was added, without or with MPP+ at 4 μM diluted in control medium and let for 48 h. […]
The following conditions were assessed: (6 wells per condition) • Control (vehicle) • Compound CR777 of example 1 (1 pmol/L) • Compound CR777 of example 1 (10 pmol/L) • Compound CR777 of example 1 (100 pmol/L) • Compound CR777 of example 1 (1 nmol/L) • Compound CR777 of example 1 (10 nmol/L) • Compound CR777 of example 1 (100 nmol/L) • Compound CR777 of example 1 (1 μmol/L) • Compound CR777 of example 1 (10 μmol/L) […]
Data were expressed in percentage of control conditions (no injury, no compound=100%). All values were expressed as mean+/−SEM (standard error mean) of the 6 wells with statistical analyses on the different conditions (ANOVA followed by Dunnett's test when allowed, using GraphPad Prism software).

[5] = tested on: primary rat cortical neurons injured with glutamate; test: Effect in rat primary cortical neurons after glutamate injury
Description: A., et al., 1999. J Neurosci 19: 2455-2463 and Callizot.
The medium was changed every 2 days. The cortical neurons were intoxicated with glutamate solution.
The following conditions were assessed: • Control (culture medium) • + glutamate (40 μM, 20 min) • + glutamate (40 μM, 20 min)+CR777 (at each concentration)

CC1=C(CO)C(=O)O[C@@H]([C@@H](C)[C@H]2CCC3C4C[C@H](SC[C@H](NC(=O)CC[C@@H](N)C(=O)O)C(=O)NCC(=O)O)[C@]5(O)[C@@H](O)C=CC(=O)[C@]5(C)C4CC[C@@]32C)C1 (some centres unmarked) [CR777]
toxicity (cell growth inhibition, MTS) [1]: does not show any toxicity | toxicity (cell growth inhibition, MTS) [2]: does not show any toxicity | toxicity (cell growth inhibition, MTS) [3]: does not show any toxicity | TH positive neuron survival ([4]; added 1 h before MPP+ (4 μM, 48 h), all concentrations 1 pmol/L to 10 μmol/L, more particularly 10 to 100 nmol/L): significantly protected neurons from death | neuro-protective effect on MPP+ induced injuries ([4]; concentrations between 10 and 100 nmol/L, MPP+ 4 μM, 48 h): important and significantly neuro-protective effect | neurite network ([5]; CR777 1 pmol/L to 10 μmol/L overall, glutamate 40 μM, 20 min): moderate neuroprotective effect | neuron survival ([5]; CR777 100 pM, added 1 h before glutamate (40 μM, 20 min) and let for 48 h): significantly protected neurons from death | neuron survival ([5]; CR777 from 1 nM up to 1 μM, glutamate 40 μM, 20 min): full protection | concentration at which the maximal effect on neurite network was observed ([5]; glutamate 40 μM, 20 min): 1 µM | concentration at which the maximal effect on neuron survival was reached ([5]; glutamate 40 μM, 20 min, dose dependent): 10 nM | neurite network ([5]; only the doses of 10, 100 pM and 1 μM, glutamate 40 μM, 20 min): significantly protected the neurite network
